Where two headings read alike, the source gives them in different places. Residues, ends and D or L forms follow the SMILES beside them. Groups on a side chain read outwards from the residue. *: point of attachment. Glutaryl(5-(14-O-Dox)) = COc1cccc2c1C(=O)c1c(O)c3c(c(O)c1C2=O)C[C@@](O)(C(=O)COC(=O)CCCC(=O)*)C[C@@H]3O[C@H]1C[C@H](N)[C@H](O)[C@H](C)O1; βAla = NCCC(=O)O
Legend:
MCF-7 cells = test: MTS cytotoxicity assay of [(WR)8WKβA]-Dox, MCF-7; format: cell-based
Description: (§1) Cytotoxic activity of the synthesized conjugate and noncovalent mixtures of cyclic [WR]9+Dox was determined in SK-OV-3, MDA-MB-231, MCF-7, MES-SA/MX2, and H9C2 cells. […] An appropriate growth medium was used for each cell line (for SK-OV-3: McCoy's […] with L-glutamine containing fetal bovine serum (FBS) (10%) and penicillin or streptomycin (1%); for MDA-MB-231 and MCF-7 cells: DMEM/F12 (1:1) (1×) with L-Glutamine and 15 mM HEPES containing FBS (10%) and penicillin or streptomycin (1%), and for MES-SA/MX2 and H9C2 cells: Minimum Essential Medium Eagle with Earle's salts and sodium bicarbonate, without L-glutamine containing FBS (10%), and penicillin or streptomycin (1%)). The cells were seeded in a complete growth medium 24 h prior to the experiment. […] The incubation was continued for 3 h.

MES-SA/MX2 cells [1] = test: MTS cytotoxicity assay of [(WR)8WKβA]-Dox, MES-SA/MX2; conditions: MES-SA/MX2; for reduction in cell viability: 24 h
Description: as §1

H9C2 myocardium cells = conditions: 24 h
Description: as §1

H9C2 cells = test: Confocal microscopy uptake in H9C2 (Example 2); format: cell-based, rat; conditions: 5 μM, 24 h
Description: Confocal Microscopy. MDA-MB-231, SK-OV-3, MES-SA/MX2, and H9C2 cells (7×10^4 cells/well) were seeded with a medium on a coverslip 24 h prior to the experiment in six well plates. After 24 h, the medium was changed with opti-MEM. The cells were treated with Dox and peptide-Dox conjugate (5 μM) in opti-MEM for 24 h. After 24 h incubation, the media were removed, and cells were washed three times with PBS in each well. Then, the cells were fixed with 3.7% formaldehyde for 10 min, followed by washing three times with PBS (pH 7.6) for 5 min. DAPI (40 μL) for staining the nuclei was placed on a microscope slide, and it was covered with the coverslip with the cell-attached side facing down. The slides were left standing horizontally in a dark place with airflow to allow faster drying. The cells were photographed using Nikon Instruments A1 Confocal Laser Microscope Series and NIS-Elements software (AR 4.30.02, 64 bit). The scan mode was selected as Galvano. The magnification and resolution were set at 40× and 1024, respectively.

MDA-MB-231 cells [2] = test: Differential extraction of Dox in nuclear and cytoplasmic compartments (HPLC); format: cell-based; conditions: 50 μM; 4 h exposure
Description: Differential Extraction of Dox in Nuclear and Cytoplasmic Compartments. In order to confirm nuclear delivery of peptide-conjugated Dox, in addition to confocal microscopy, a differential nuclear and cytoplasmic extraction was performed. […] The cells were then pelleted at 2000 rpm for 5 min. After removing the supernatant, the cells were resuspended in Dounce buffer containing protease inhibitors. The cell suspension to be used was incubated on ice for 15 min before being spiked with cold 10% NP-40 and vortexed for 10 s. The suspension was centrifuged at 10,000 rpm for 10 min at 4° C. to pellet the nuclei. The supernatant was isolated for cytoplasmic extraction. The nuclear pellet was washed in cold PBS twice and centrifuged to remove the supernatant. The isolated nuclei were then lysed using RIPA buffer containing protease inhibitors. The nuclear and cytoplasmic extractions were analyzed by analytical HPLC to differentially quantify free Dox (or Dox released from the conjugates) and peptide-conjugate Dox using an Agilent Zorbax SB-C18 (4.6×150 mm) column. The column was equilibrated with 0.1% TFA-water (solvent A). The elution was performed at a flow rate of 1 mL/min using a gradient of acetonitrile from 0 to 35% in 50 min, with the absorbance measured at 490 nm.

MDA-MB-231 cells [3] = test: FACS cellular uptake with endocytosis inhibitors, MDA-MB-231; format: cell-based; conditions: 5 μM, 3 h
Description: Fluorescence-Activated Cell Sorter (FACS) Analysis of Cellular Uptake in the Presence of Endocytosis Inhibitors. A flow cytometry study was conducted in the presence of endocytosis inhibitors such as nystatin, chlorpromazine, chloroquine, and methyl β-cyclodextrin to determine whether the cellular uptake for the peptide-Dox was endocytosis-dependent. MDA-MB-231 (5×10^5 cells/well) were seeded in the medium 24 h prior to the experiment in six well plates, and after 24 h the medium was changed with Opti-MEM. […] After 3 h incubation, the media containing the compounds were removed. Next, the cells were digested with 0.05% trypsin/EDTA (0.53 mM) for 5 min to remove any artificial surface binding, centrifuged at 2500 RPM for 5 min, and then collected as the precipitant. Then the cells were washed two times with PBS, resuspended in flow cytometry buffer, and transferred to the flow cytometry tubes through the 35 μm Strainer Mesh cap. Finally, the cells were analyzed by flow cytometry (FACSCalibur Becton Dickinson) using the propidium iodide channel and CellQuest software. The data presented were based on the mean fluorescence intensity for 10,000 cells collected. All assays were performed in triplicate.

MES-SA/MX2 cells [4] = test: FACS cellular uptake with endocytosis inhibitors, MES-SA/MX2; format: cell-based; conditions: 5 μM, 3 h
CCRF-CEM cells = conditions: 5 μM
Description: Intracellular Hydrolysis. […] Cells were grown with serum-free RPMI medium in 75 cm^2 culture flasks to approximately 70-80% confluence (1.37×10^7 cells/mL). […] Then the cells were incubated at 37° C. After 4 h, the medium containing the conjugate was aspirated, and cells were washed three times with PBS before adding a fresh serum-free medium. The cells were first partitioned/transferred to culture plates (six wells) contained 1.37×10^7 cells per well in 5 mL of medium, then incubated for the indicated time. After incubation, the cells were collected using centrifugation. After centrifugation, the medium was removed by decantation. The cell pellets were washed with ice-cold PBS to remove any remaining medium. The cell pellets were then completely extracted with an equal volume of methanol, chloroform, and isopropanol mixture (4:3:1 v/v/v) and finally filtered through 0.2 μm filters.

in vitro = conditions: human, 25% human serum
Description: Human serum (250 μL) was diluted by adding sterile water (650 μL) and conjugate stock solution (100 μL) to give a sample with 25% human serum and 5 μM conjugate. The sample was kept at 37° C. in an incubator to mimic human body temperature. At regular time intervals, aliquots (100 μL) were taken and diluted with methanol (200 μL). After centrifugation (7000 RPM) of the mixture for 10 min, the supernatant was analyzed by analytical HPLC at 495 nm, and the major HPLC peaks were analyzed by mass spectrometry. The mobile phase used was acetonitrile/water with 0.1% TFA, with a gradient of 20-45% and a flow rate of 1 mL/min in 50 min. The percentage of intact conjugate and the release of the free drug were plotted against incubation time. The AUC obtained after each run was used to confirm the conjugate's degradation, and t1/2 (the time needed to hydrolyze half of the initial conjugate in human serum) was calculated from the graph plotted as AUC versus incubation time.

Question: Which “reduction of cell proliferation” value (MCF-7 cells; 1 μM, 24 h) does the source give for `COc1cccc2c1C(=O)c1c(O)c3c(c(O)c1C2=O)C[C@@](O)(C(=O)COC(=O)CCCC(=O)NCCC(=O)NCCCC[C@@H]1NC(=O)[C@H](Cc2c[nH]c4ccccc24)NC(=O)[C@H](CCCNC(=N)N)NC(=O)[C@H](Cc2c[nH]c4ccccc24)NC(=O)[C@H](CCCNC(=N)N)NC(=O)[C@H](Cc2c[nH]c4ccccc24)NC(=O)[C@H](CCCNC(=N)N)NC(=O)[C@H](Cc2c[nH]c4ccccc24)NC(=O)[C@H](CCCNC(=N)N)NC(=O)[C@H](Cc2c[nH]c4ccccc24)NC(=O)[C@H](CCCNC(=N)N)NC(=O)[C@H](Cc2c[nH]c4ccccc24)NC(=O)[C@H](CCCNC(=N)N)NC(=O)[C@H](Cc2c[nH]c4ccccc24)NC(=O)[C@H](CCCNC(=N)N)NC(=O)[C@H](Cc2c[nH]c4ccccc24)NC(=O)[C@H](CCCNC(=N)N)NC(=O)[C@H](Cc2c[nH]c4ccccc24)NC1=O)C[C@@H]3O[C@H]1C[C@H](N)[C@H](O)[C@H](C)O1` [[(WR)8WKβA]-Dox] (cyclo(K([βAla-Glutaryl(5-(14-O-Dox))])WRWRWRWRWRWRWRWRW)) here?
Answer: 28%

Question: And the “reduction of cell proliferation” value (MCF-7 cells; 1 μM, 72 h)?
Answer: 70%

Question: And the “reduction of cell proliferation” value (MCF-7 cells; 5 μM, 24 h)?
Answer: 55%

Question: And the “reduction of cell proliferation” value (MCF-7 cells; 5 μM, 72 h)?
Answer: 77%

Question: What about the “reduction of cell proliferation” value (MCF-7 cells; 10 μM, 24 h) of the same compound?
Answer: 56%

Question: What about the “reduction of cell proliferation” value (MCF-7 cells; 10 μM, 72 h) of the same compound?
Answer: 77%

Question: And the “reduction in cell viability” value (MES-SA/MX2 cells [1]; 1 μM)?
Answer: 64%

Question: And the “reduction in cell viability” value (MES-SA/MX2 cells [1]; 5 μM)?
Answer: 50%

Question: What about the “Dox-resistant cell survival / viability” value (MES-SA/MX2 cells [1]; 5 μM, 72 h) of the same compound?
Answer: 8%

Question: What about the “reduction in cell viability” value (MES-SA/MX2 cells [1]; 10 μM) of the same compound?
Answer: 39%

Question: What about the “cytotoxicity” value (H9C2 myocardium cells; 1 μM and 5 μM) of the same compound?
Answer: no significant cytotoxicity

Question: And the “cytotoxicity” value (H9C2 myocardium cells; 10 μM)?
Answer: comparable to Dox

Question: What about the “uptake in heart cells (confocal microscopy, words)” value (H9C2 cells) of the same compound?
Answer: did not show any significant uptake

Question: And the “total concentration of Dox (conjugated and released) in the nucleus” value (MDA-MB-231 cells [2])?
Answer: higher than free Dox

Question: What about the “cellular uptake in presence of nystatin and chloroquine” value (MDA-MB-231 cells [3]) of the same compound?
Answer: not reduced significantly

Question: And the “cellular uptake in presence of nystatin and chloroquine” value (MES-SA/MX2 cells [4])?
Answer: not reduced significantly

Question: What about the “free Dox released intracellularly” value (CCRF-CEM cells; within 12 h) of the same compound?
Answer: More than 36%

Question: And the “free Dox released intracellularly” value (CCRF-CEM cells; within 72 h)?
Answer: Approximately 100%

Question: And the half-life at 5 μM (in vitro)?
Answer: ~6 h

Question: What about the remaining at 3 h, 5 μM (in vitro) of the same compound?
Answer: 80%

Reference: US12070505B2, “Targeted peptide-drug conjugates” (priority 2021, dated 2024)
